According to ChEMBL document CHEMBL5465560, “Selectivity Literature for EUbOPEN Chemogenomic Library” (2024):

Assays:
[1] = target: Serine/threonine-protein kinase MRCK beta (Homo sapiens) (UniProt Q9Y5S2); assay: Selectivity interaction (KinomeScan (DiscoverX)) EUB0001079a CDC42BPB; details: at 1 µM
[2] = target: Calcium/calmodulin-dependent protein kinase kinase 1 (Homo sapiens) (UniProt Q8N5S9); assay: Selectivity interaction (KinomeScan (DiscoverX)) EUB0001079a CAMKK1; details: at 1 µM
[3] = target: Tyrosine-protein kinase JAK2 (Homo sapiens, UniProt O60674); assay: Selectivity interaction (Kinase panel (Z-LYTE Assay)) EUB0001632a JAK2; details: at 10 µM
[4] = target: Ribosomal protein S6 kinase alpha-2 (Homo sapiens) (UniProt Q15349); assay: Selectivity interaction (KinomeScan (DiscoverX)) EUB0000311b RPS6KA2; details: at 1 µM
[5] = target: Serine/threonine-protein kinase N1 (Homo sapiens, UniProt Q16512); assay: Selectivity interaction (ActivX KiNativ screen (kinase selectivity in THP-1 cell lysates)) EUB0000639a PKN1; assay type: subcellular; details: lysate, at 5 µM
[6] = target: T1, Ephrin type-B receptor 1 (Homo sapiens) (UniProt P54762); assay: Selectivity interaction (KinomeScan (DiscoverX)) EUB0000045b EPHB1
T1 sequence (whole entry): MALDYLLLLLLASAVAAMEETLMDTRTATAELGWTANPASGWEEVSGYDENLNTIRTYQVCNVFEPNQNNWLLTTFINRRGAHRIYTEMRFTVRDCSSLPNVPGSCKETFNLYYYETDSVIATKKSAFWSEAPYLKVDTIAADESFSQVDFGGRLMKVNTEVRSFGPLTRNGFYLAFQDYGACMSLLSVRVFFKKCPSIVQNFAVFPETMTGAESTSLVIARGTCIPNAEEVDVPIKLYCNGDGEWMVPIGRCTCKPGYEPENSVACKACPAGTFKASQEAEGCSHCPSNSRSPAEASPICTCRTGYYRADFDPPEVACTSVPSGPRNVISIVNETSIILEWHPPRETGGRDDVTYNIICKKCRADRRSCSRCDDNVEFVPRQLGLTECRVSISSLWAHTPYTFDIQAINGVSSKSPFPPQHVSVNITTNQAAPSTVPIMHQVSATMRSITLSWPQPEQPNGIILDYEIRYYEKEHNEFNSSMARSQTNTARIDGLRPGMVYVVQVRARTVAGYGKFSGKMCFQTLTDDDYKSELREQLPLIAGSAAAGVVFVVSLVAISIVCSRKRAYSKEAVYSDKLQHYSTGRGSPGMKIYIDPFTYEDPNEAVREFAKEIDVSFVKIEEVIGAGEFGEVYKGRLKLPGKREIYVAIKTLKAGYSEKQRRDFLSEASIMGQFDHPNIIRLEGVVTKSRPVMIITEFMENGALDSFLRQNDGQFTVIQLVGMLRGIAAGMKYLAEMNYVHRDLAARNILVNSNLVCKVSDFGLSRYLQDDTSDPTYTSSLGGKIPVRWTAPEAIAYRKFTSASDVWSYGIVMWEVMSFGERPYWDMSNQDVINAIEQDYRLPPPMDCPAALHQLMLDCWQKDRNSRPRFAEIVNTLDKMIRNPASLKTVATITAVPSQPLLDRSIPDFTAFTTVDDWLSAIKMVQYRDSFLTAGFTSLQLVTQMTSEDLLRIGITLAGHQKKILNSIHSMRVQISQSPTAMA

[7] = target: T2, Serine/threonine-protein kinase STK11 (Homo sapiens) (UniProt Q15831); assay: Selectivity interaction (KinomeScan (DiscoverX)) EUB0000618a STK11; details: at 10 µM
T2 sequence (whole entry): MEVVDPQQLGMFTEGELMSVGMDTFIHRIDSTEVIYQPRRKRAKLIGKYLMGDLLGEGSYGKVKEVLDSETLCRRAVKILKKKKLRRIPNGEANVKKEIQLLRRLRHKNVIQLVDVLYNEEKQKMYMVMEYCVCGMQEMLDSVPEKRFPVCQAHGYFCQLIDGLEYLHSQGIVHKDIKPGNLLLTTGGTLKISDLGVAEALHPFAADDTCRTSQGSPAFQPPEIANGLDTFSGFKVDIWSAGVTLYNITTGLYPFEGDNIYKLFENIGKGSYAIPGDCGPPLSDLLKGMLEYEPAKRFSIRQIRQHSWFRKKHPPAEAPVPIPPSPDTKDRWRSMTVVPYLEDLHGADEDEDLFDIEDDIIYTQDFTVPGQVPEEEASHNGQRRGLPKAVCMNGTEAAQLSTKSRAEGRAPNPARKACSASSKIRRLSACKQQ

[8] = target: T3, EKC/KEOPS complex subunit TP53RK (Homo sapiens) (UniProt Q96S44); assay: Selectivity interaction (ActivX KiNativ screen (ex vivo kinase selectivity in human PBMCs)) EUB0001619a TP53RK; assay type: cell-based; details: PBMC, at 1 µM
T3 sequence (whole entry): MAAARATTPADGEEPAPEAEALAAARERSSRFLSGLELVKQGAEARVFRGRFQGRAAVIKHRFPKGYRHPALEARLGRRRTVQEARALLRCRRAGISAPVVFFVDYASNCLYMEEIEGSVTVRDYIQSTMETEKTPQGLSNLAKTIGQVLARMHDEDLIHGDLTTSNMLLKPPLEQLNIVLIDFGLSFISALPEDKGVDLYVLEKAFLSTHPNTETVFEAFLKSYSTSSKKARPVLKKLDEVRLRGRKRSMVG

Calcium/calmodulin-dependent protein kinase kinase 1 (Homo sapiens), sequence (Q8N5S9 whole entry, looked up): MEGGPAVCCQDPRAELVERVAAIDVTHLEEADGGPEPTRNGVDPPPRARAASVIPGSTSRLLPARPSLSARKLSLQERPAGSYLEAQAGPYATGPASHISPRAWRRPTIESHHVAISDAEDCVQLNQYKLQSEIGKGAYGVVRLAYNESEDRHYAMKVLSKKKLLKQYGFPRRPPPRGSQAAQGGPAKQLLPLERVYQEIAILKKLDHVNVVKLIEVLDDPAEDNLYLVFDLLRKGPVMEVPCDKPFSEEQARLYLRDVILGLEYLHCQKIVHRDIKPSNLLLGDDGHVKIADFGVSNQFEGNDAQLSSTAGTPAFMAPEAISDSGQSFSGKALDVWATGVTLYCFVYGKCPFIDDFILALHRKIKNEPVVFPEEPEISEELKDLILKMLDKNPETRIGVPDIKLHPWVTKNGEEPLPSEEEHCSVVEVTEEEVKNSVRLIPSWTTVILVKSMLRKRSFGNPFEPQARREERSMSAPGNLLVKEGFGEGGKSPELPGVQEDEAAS
Ribosomal protein S6 kinase alpha-2 (Homo sapiens), sequence (Q15349 whole entry): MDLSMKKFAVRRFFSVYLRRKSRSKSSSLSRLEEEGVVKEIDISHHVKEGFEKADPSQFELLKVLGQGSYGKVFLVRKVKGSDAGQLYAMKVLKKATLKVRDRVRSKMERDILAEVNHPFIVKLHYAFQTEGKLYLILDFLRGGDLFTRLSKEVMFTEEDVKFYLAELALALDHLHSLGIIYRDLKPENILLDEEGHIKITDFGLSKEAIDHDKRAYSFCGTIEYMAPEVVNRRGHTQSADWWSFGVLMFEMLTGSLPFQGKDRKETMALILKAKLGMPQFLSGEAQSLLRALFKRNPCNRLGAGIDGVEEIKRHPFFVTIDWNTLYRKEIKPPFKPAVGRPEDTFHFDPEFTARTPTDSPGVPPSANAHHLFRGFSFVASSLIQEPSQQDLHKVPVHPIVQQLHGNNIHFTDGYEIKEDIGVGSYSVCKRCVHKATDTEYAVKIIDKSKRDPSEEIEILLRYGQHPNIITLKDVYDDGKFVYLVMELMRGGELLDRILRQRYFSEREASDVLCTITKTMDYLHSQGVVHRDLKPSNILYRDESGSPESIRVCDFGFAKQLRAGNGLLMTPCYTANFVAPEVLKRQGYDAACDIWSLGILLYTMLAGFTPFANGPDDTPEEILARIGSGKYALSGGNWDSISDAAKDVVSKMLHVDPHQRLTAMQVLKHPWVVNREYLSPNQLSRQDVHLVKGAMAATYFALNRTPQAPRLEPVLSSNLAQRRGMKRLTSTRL
Serine/threonine-protein kinase N1, sequence (Q16512 2-942 limits assumed): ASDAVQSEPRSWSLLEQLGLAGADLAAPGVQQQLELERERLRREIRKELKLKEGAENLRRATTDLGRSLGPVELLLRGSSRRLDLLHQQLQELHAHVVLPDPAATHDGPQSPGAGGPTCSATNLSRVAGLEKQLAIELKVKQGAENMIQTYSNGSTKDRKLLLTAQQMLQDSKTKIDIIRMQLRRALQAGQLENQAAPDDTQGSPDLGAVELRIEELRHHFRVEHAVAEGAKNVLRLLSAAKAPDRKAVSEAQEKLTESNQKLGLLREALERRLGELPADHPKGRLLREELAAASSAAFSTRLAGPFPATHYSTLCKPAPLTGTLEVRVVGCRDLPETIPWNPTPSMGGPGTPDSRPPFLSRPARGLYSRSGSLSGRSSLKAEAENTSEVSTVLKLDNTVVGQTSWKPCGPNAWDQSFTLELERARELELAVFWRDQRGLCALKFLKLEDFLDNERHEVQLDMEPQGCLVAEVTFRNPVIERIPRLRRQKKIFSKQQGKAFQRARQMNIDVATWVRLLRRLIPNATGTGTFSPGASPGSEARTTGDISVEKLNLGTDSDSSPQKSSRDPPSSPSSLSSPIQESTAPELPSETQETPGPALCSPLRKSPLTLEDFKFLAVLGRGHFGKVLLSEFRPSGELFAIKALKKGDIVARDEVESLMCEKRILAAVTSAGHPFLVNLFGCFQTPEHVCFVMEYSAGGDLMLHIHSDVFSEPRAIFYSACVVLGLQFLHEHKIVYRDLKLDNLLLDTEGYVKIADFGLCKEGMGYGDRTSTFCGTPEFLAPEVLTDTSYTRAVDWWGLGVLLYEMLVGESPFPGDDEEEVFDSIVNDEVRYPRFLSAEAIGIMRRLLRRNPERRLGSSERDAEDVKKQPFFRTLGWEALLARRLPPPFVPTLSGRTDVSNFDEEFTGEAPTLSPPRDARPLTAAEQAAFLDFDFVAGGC
Tyrosine-protein kinase JAK2, sequence (O60674 whole entry): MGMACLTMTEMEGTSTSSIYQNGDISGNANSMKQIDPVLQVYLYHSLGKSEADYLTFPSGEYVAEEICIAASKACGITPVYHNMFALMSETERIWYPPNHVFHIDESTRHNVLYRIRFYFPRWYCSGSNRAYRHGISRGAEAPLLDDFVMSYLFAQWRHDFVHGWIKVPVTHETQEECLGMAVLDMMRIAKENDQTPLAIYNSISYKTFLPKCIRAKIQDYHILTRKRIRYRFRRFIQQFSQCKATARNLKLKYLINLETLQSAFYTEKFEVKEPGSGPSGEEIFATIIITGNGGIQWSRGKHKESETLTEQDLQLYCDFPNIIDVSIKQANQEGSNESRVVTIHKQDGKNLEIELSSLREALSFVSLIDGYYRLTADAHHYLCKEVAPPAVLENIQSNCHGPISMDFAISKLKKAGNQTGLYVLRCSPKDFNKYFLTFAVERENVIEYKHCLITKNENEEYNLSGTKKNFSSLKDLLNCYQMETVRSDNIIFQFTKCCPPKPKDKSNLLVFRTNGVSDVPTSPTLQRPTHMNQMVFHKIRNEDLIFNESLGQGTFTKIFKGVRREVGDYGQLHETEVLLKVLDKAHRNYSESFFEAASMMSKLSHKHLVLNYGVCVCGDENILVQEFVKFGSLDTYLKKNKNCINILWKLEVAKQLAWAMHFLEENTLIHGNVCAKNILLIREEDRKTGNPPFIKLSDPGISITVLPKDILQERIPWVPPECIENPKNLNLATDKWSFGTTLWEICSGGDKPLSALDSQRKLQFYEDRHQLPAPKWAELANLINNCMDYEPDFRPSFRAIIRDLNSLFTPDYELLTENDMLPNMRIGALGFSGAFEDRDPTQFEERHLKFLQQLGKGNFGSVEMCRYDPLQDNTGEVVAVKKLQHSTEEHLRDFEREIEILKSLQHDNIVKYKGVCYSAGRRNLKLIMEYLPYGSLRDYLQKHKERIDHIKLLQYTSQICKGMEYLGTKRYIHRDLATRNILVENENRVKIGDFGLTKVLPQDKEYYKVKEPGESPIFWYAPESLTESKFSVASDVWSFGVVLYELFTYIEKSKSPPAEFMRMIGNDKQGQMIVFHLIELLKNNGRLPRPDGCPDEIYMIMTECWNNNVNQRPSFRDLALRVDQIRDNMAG
Serine/threonine-protein kinase MRCK beta (Homo sapiens), sequence (Q9Y5S2 whole entry): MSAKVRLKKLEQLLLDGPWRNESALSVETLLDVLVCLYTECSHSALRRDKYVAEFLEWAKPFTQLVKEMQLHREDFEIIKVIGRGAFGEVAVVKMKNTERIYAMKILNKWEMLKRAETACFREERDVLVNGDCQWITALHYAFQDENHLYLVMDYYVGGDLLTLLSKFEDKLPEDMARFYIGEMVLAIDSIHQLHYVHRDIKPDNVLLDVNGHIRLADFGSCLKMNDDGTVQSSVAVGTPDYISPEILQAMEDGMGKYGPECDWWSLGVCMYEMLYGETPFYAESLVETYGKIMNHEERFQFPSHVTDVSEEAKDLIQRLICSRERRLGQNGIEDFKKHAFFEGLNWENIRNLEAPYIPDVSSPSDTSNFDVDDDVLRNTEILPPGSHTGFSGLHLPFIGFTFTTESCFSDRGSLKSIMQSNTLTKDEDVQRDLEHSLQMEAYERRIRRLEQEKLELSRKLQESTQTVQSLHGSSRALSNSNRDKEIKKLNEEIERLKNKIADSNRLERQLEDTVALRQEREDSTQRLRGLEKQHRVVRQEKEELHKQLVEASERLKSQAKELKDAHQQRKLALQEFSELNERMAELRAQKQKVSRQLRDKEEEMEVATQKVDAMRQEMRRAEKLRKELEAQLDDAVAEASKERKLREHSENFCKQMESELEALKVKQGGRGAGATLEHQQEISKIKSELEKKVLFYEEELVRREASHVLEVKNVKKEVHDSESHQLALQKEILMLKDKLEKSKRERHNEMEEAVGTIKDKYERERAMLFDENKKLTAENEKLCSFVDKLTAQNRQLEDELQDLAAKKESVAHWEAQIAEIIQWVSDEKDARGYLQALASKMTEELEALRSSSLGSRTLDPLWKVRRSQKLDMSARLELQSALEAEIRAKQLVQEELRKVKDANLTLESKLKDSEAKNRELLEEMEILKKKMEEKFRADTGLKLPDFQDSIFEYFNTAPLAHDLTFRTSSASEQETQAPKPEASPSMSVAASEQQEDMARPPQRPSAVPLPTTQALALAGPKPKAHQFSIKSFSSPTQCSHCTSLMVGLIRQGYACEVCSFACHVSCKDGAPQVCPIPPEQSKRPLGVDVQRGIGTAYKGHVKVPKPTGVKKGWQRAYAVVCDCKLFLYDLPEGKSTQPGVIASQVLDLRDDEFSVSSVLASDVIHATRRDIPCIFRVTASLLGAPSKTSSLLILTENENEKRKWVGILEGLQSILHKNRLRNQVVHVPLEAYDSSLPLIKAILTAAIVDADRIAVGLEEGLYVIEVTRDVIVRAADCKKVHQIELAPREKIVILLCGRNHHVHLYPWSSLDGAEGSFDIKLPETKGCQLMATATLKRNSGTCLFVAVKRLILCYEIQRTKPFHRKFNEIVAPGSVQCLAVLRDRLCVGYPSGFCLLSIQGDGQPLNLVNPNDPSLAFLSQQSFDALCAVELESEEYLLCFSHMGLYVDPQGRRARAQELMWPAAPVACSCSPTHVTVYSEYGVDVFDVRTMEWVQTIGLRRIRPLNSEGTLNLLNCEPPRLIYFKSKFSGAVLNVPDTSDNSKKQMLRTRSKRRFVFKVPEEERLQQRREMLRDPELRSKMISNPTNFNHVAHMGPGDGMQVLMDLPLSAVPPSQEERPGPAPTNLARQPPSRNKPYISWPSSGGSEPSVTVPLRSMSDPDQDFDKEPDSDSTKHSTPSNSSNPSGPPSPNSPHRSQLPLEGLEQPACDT

In the case of `Nc1cnc(N2CCc3cc(S(=O)(=O)Nc4c(F)cc(Cl)cc4F)cc(N4CCCC4=O)c32)nc1` [TP-020n], the % of control [1] is reported as 95% and the % of control [2] is reported as 100%.
For `Cn1cc(-n2cnc3c(NCc4nc5cc(Cl)c(Cl)cc5[nH]4)nc(N4CCOCC4)nc32)cn1`, the % of control [3] was 3.68%.
In the case of `CCc1ccccc1C(=O)Nc1n[nH]c2c(C)c(F)c(C3C(C#N)=C(C)N(C)C(C)=C3C#N)cc12` [BAY-3827], the % of control [4] is reported as 0%.
With `CC[C@@H]1[C@H](F)C(=O)N[C@@H]1COc1nccc2cc(C(N)=O)c(OC)cc12` [ZIMLOVISERTIB] the % of inhibition [5] was 0.1%.
In the case of `C=CC(=O)Nc1cc(-n2c(=O)ccc3cnc4ccc(-c5ccc(NS(C)(=O)=O)cc5)cc4c32)ccc1C`, the % of control ([6]; at 1 µM) is reported as 100% and the % of control ([6]; at 10 µM) is reported as 100%.
With `O[C@H]1CC[C@H](Nc2ncc3nc(Nc4c(F)cc(F)cc4F)n([C@H]4CCOC4)c3n2)CC1` the % of control [7] was 100%.
In the case of `N#Cc1cccc(-c2c[nH]c3ncnc(N4CCOCC4)c23)c1`, the % of inhibition [8] is reported as -4%.
